In EP4678644A1, “SUBSTITUTED DIHYDROTHIENOPYRIMIDINE COMPOUND, PREPARATION METHOD THEREFOR, AND USE THEREOF” (Shanghai Yidi Biotechnology Co., Ltd., priority 2023, dated 2024):

Biological target: T1, PDE4B2 (Homo sapiens, UniProt Q07343)
T1 construct: expressed in transfected cells; host or cells: Flp-In-293 (Flpin-293-PDE4B2 [sic])
Test: PDE4B2 cell experiment (cAMP, Eu-cAMP tracer / Ulight-anti-cAMP)
Format: cell-based
Details: Flpin-293-PDE4B2 cells; for Cell Inhibition% @1 nM / inhibition at 0.001 µM: 1 nM; for Cell Inhibition% @10 nM / inhibition at 0.01 µM: 10 nM; for Cell Inhibition% @100 nM / inhibition at 0.1 µM: 100 nM

T1 sequence (Q07343 1-564 isoform Q07343-2): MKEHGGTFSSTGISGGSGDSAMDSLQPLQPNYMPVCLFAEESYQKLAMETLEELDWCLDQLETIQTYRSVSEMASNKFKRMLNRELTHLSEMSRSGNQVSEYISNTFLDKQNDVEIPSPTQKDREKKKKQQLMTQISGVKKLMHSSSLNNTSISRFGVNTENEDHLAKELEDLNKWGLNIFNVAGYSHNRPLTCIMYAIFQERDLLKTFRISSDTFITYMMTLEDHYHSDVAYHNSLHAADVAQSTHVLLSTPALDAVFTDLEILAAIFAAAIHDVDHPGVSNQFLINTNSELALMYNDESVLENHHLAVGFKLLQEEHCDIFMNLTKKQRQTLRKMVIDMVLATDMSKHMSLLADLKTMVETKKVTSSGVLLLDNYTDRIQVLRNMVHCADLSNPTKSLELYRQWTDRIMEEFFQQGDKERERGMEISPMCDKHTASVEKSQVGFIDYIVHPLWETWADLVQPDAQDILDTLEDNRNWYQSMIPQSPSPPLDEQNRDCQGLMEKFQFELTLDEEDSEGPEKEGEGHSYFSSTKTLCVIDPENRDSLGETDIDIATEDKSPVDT

SMILES | Cell Inhibition% @10 nM | Cell Inhibition% @100 nM | Cell Inhibition% @1 nM | inhibition at 0.001 µM | inhibition at 0.01 µM | inhibition at 0.1 µM
Cn1cc2c(n1)CN(c1nc3c(c(NC4(CO)CCC4)n1)[S+]([O-])CC3)CC2 (centres unmarked) [Compound 30] | 11.30% | 48.00% |  |  |  | 
[O-][S+]1CCc2nc(N3CCc4cc(-c5ncco5)ccc4C3)nc(NC3(CO)CCC3)c21 (centres unmarked) [Compound 84] | 96.96% | 100.72% | 32.85% |  |  | 
O=C1CCCN1c1ccc2c(c1)CCN(c1nc3c(c(NC4(CO)CCC4)n1)[S+]([O-])CC3)C2 (centres unmarked) [Compound 87] | 31.33% | 89.06% | 2.90% |  |  | 
[O-][S+]1CCc2nc(N3CCc4cc(N5CC(F)(F)C5)ccc4C3)nc(NC3(CO)CCC3)c21 (centres unmarked) [Compound 88] | 28.76% | 93.47% | 3.67% |  |  | 
[O-][S+]1CCc2nc(N3CCc4cc(F)c(F)cc4C3)nc(NC3(CO)CCC3)c21 (centres unmarked) [Compound 95] | 6.8% | 66.7% | -4.2% |  |  | 
[O-][S+]1CCc2nc(N3CCc4cc(Cl)c(F)cc4C3)nc(NC3(CO)CCC3)c21 (centres unmarked) [Compound 96] | 15.7% | 84.8% | -2.7% |  |  | 
[O-][S+]1CCc2nc(N3CCC4=C(COc5ccccc54)C3)nc(NC3(CO)CCC3)c21 (centres unmarked) [Compound 97] | 17.36% | 86.54% | 1.66% |  |  | 
Nc1nc2cc(Cl)ccc2c2c1CN(c1nc3c(c(NC4(CO)CCC4)n1)[S+]([O-])CC3)CC2 (centres unmarked) [Compound 102] | 35.86% | 95.46% | -0.08% |  |  | 
Cn1nc(Cl)c2c3c(cnc21)CN(c1nc2c(c(NC4(CO)CCC4)n1)[S+]([O-])CC2)CC3 (centres unmarked) [Compound 105] | 42.53% | 93.48% | 7.53% |  |  | 
[O-][n+]1cc2c(c3ccc(Cl)cc31)CCN(c1nc3c(c(NC4(CO)CCC4)n1)[S+]([O-])CC3)C2 (centres unmarked) [Compound 106] | 21.18% | 67.52% | 0.41% |  |  | 
[O-][S+]1CCc2nc(N3CC[C@@H]4c5ccc(F)cc5OC[C@H]4C3)nc(NC3(CO)CCC3)c21 (some centres unmarked) [Compound 109] | 65.40% | 97.85% | 17.70% |  |  | 
COc1ccc2c(c1)OC[C@H]1CN(c3nc4c(c(NC5(CO)CCC5)n3)[S+]([O-])CC4)CC[C@H]21 (some centres unmarked) [Compound 110] | 76.13% | 100.03% | 18.98% |  |  | 
[O-][S+]1CCc2nc(N3CC[C@@H]4c5ccc(C(F)(F)F)cc5OC[C@H]4C3)nc(NC3(CO)CCC3)c21 (some centres unmarked) [Compound 111] | 22.21% | 81.06% | 8.07% |  |  | 
Cc1ccc2c(c1)OC[C@H]1CN(c3nc4c(c(NC5(CO)CCC5)n3)[S+]([O-])CC4)CC[C@H]21 (some centres unmarked) [Compound 112] | 54.08% | 99.44% | 12.30% |  |  | 
[O-][S@+]1CCc2nc(N3CC[C@@H]4c5ccncc5OC[C@H]4C3)nc(NC3(CO)CCC3)c21 [Compound 113, (R)-4-((1-(hydroxymethyl)cyclobutyl)amino)-2-((6aR,10aS)-6a,9,10,10-tetrahydro-6H-pyrano[2,3-c:5,4-c']dipyridin-8(7H)-yl)-6,7-dihydrothieno[3,2-d]pyrimidine 5-oxide] |  |  |  | 5.01% | 22.8% | 71.9%
[O-][S@+]1CCc2nc(N3CC[C@H]4c5ncc(Cl)cc5OC[C@@H]4C3)nc(NC3(CO)CCC3)c21 [Compound 114, (R)-2-((6aS,10aR)-3-chloro-6a,9,10,10-tetrahydro-6H-pyrano[3,2-b:5,4-c']dipyridin-8(7H)-yl)-4-((1-(hydroxymethyl)cyclobutyl)amino)-6,7-dihydrothieno[3,2-d]pyrimidine 5-oxide] |  |  |  | -1.54% | 8.74% | 54.5%
